In general, melting point refers to the temperature, or range, at which the solid turns liquid.

In turn, `CNC(=O)NC(=O)C(CC1CCCC1)c1ccc(C#N)cc1` (stereo not shown) [Example 43, 1-[2-(4-cyano-phenyl)-3-cyclopentyl-propionyl]-3-methyl-urea] yielded a melting point of 61 to 65 °C.

The molecule `CNC(=O)NC(=O)C(CC1CCCC1)c1ccc([N+](=O)[O-])cc1` (stereo not shown) [Example 5, 1-[3-cyclopentyl-2-(4-nitro-phenyl)-propionyl]-3-methyl-urea] registered a melting point of 179 to 183 °C.

In turn, `CNC(=O)NC(=O)C(CC1CCCC1)c1ccc(S(=O)(=O)C(F)(F)F)cc1` (stereo not shown) [Example 9, 1-[3-cyclopentyl-2-(4-trifluoromethanesulfonyl-phenyl)-propionyl]-3-methyl urea] came in with a melting point of 191 to 192 °C.

`CNC(=O)NC(=O)C(CC1CCCC1)c1ccccc1` (stereo not shown) [Example 6, 1-(3-cyclopentyl-2-phenyl-propionyl)-3-methyl-urea] came in with a melting point of 145 to 147 °C.

As to `CNC(=O)NC(=O)C(CC1CCCC1)c1ccc(F)c(F)c1` (stereo not shown) [Example 3, 1-[3-cyclopentyl-2-(3,4-difluoro-phenyl)-propionyl]-3-methyl-urea], the melting point is 111 to 113 °C.

Turning to `NC(=O)NC(=O)C(CC1CCCCC1)c1ccc(Cl)c(Cl)c1` (stereo not shown) [Example 1], the melting point was in the range of 76 to 79 °C.

The molecule `CNC(=O)NC(=O)C(CC1CCCC1)c1ccc(Cl)cc1` (stereo not shown) [Example 4, 1-[2-(4-chloro-phenyl)-3-cyclopentyl-propionyl]-3-methyl-urea] had a melting point of 145 to 147 °C.

`CNC(=O)NC(=O)C(CC1CCCC1)c1ccc(SC)cc1` (stereo not shown) [Example 10, 1-[3-cyclopentyl-2-(4-methylsulfanyl-phenyl)-propionyl]-3-methyl urea] returned a melting point of 185 to 186 °C.

Molecule `CC(C)CC(C(=O)NC(N)=O)c1ccc(Cl)cc1` (stereo not shown) [Example 16, [2-(4-chloro-phenyl)-4-methyl-pentanoyl]-urea] yielded a melting point of 164 to 165 °C.

With `CNC(=O)NC(=O)C(CC1CCCC1)c1ccc(S(C)(=O)=O)c(S(C)(=O)=O)c1` (stereo not shown) [Example 37, 1-[2-(3,4-bis-methanesulfonyl-phenyl)-3-cyclopentyl-propionyl]-3-methyl-urea], the melting point lay in the range of 220 to 222 °C.

Molecule `CNC(=O)NC(=O)C(CC1CCCC1)c1ccc(S(C)(=O)=O)c([N+](=O)[O-])c1` (stereo not shown) [Example 14, 1-[3-cyclopentyl-2-(4-methanesulfonyl-3-nitrophenyl)-propionyl]-3-methyl-urea] had a melting point of 241 to 242 °C.

`CNC(=O)NC(=O)C(CC1CCCC1)c1ccc(S(C)(=O)=O)c(Br)c1` (stereo not shown) [Example 35, 1-[2-(3-bromo-4-methanesulfonyl-phenyl)-3-cyclopentyl-propionyl]-3-methyl-urea] returned a melting point of 259 to 260 °C.

For `CNC(=O)NC(=O)C(CC1CCCC1)c1ccc(C(F)(F)F)c(F)c1` (stereo not shown) [Example 32, 1-[3-cyclopentyl-2-(3-fluoro-4-trifluoromethyl-phenyl)-propionyl]-3-methyl-urea], the melting point was 187 to 189 °C.

`CNC(=O)NC(=O)C(CC1CCCC1)c1ccc(Cl)c([N+](=O)[O-])c1` (stereo not shown) [Example 34, 1-[2-(4-chloro-3-nitro-phenyl)-3-cyclopentyl-propionyl]-3-methyl-urea] showed a melting point of 61 to 64 °C.

`CNC(=O)NC(=O)C(CC1CCCC1)c1ccc(S(C)(=O)=O)cc1` (stereo not shown) [Example 11, 1-[3-cyclopentyl-2-(4-methanesulfonyl-phenyl)-propionyl]-3-methyl urea] had a melting point of 205 to 206 °C.

For `CNC(=O)NC(=O)C(CC1CCCC1)c1ccc(SC(F)(F)F)cc1` (stereo not shown) [Example 8, 1-[3-cyclopentyl-2-(4-trifluoromethylsulfanyl-phenyl)-propionyl]-3-methyl urea], the melting point was in the range of 144 to 145 °C.

`CCCCS(=O)(=O)c1ccc(C(CC2CCCC2)C(=O)NC(=O)NC)cc1` (stereo not shown) [Example 39, 1-{2-[4-(butane-1-sulfonyl)-phenyl]-3-cyclopentyl-propionyl}-3-methyl-urea]: the melting point lay within 189 to 191 °C.

`CCS(=O)(=O)c1ccc(C(CC2CCCC2)C(=O)NC(=O)NC)cc1` (stereo not shown) [Example 33, 1-[3-cyclopentyl-2-(4-ethanesulfonyl-phenyl)-propionyl]-3-methyl-urea]: the melting point was 200 to 201 °C.

On to `CNC(=O)NC(=O)C(CC1CCCC1)c1cccc(S(=O)(=O)C(F)(F)F)c1` (stereo not shown) [Example 31, 1-[3-cyclopentyl-2-(3-trifluoromethanesulfonyl-phenyl)-propionyl]-3-methyl-urea], for which the melting point lay in the range of 59 to 62 °C.

In the case of `CNC(=O)NC(=O)C(CC1CCCC1)c1ccc(Br)cc1` (stereo not shown) [Example 7, 1-[2-(4-bromo-phenyl)-3-cyclopentyl-propionyl]-3-methyl urea], the melting point lay within 184 to 186 °C.

The molecule `CNC(=O)NC(=O)C(CC1CCCC1)c1ccc(S(C)(=O)=O)c(F)c1` (stereo not shown) [Example 42, 1-[3-cyclopentyl-2-(3-fluoro4-methanesulfonyl-phenyl)-propionyl]-3-methyl-urea] came in with a melting point of 199 to 200 °C.

`CNC(=O)NC(=O)[C@H](CC1CCCC1)c1ccc(Cl)c(Cl)c1` [Example 13, 1-[3-cyclopentyl-2(R)-(3,4-dichloro-phenyl)-propionyl]-3-methyl-urea] showed a melting point of 124.8 to 127.5 °C.

Molecule `COC(=O)CNC(=O)NC(=O)C(CC1CCCC1)c1ccc(Cl)c(Cl)c1` (stereo not shown) [Example 21, {3-[3-cyclopentyl-2-(3,4-dichloro-phenyl)-propionyl]-ureido}-acetic acid methyl ester] had a melting point of 134.5 to 136.6 °C.

With `CNC(=O)NC(=O)C(CC1CCCC1)c1ccc(S(C)(=O)=O)c(C(F)(F)F)c1` (stereo not shown) [Example 40, 1-[3-cyclopentyl-2-(4-methanesulfonyl-3-trifluoromethyl-phenyl)-propionyl]-3-methyl-urea], the melting point was in the range of 268 to 270 °C.

With `CNC(=O)NC(=O)C(CC1CCCC1)c1cccc(Cl)c1` (stereo not shown) [Example 2, 1-[2-(3-chloro-phenyl)-3-cyclopentyl-propionyl]-3-methyl-urea], the melting point is 52 to 55 °C.

In turn, `CC(O)CNC(=O)NC(=O)C(CC1CCCC1)c1ccc(Cl)c(Cl)c1` (stereo not shown) [Example 19, 1-[3-cyclopentyl-2-(3,4-dichloro-phenyl)-propionyl]-3-(2-hydroxy-propyl)-urea] returned a melting point of 116.7 to 119.9 °C.

Regarding `CC(C)C[C@@H](C(=O)NC(N)=O)c1ccc(Cl)c(Cl)c1` [Example 17, R-[2-(3,4-dichloro-phenyl)-4-methyl-pentanoyl]-urea], the melting point is 138 to 140 °C.

`CNC(=O)NC(=O)C(CC1CCCC1)c1ccc(S(C)(=O)=O)c(C#N)c1` (stereo not shown) [Example 36, 1-[2-(3-cyano-4-methanesulfonyl-phenyl)-3-cyclopentyl-propionyl]-3-methyl-urea] came in with a melting point of 237 to 239 °C.

These data come from patent US6528543B1, “Urea derivatives” (Hoffman-La Roche Inc., priority 1999, dated 2003).
